Literature values in patent publication US20080318986A1, “Ddc Compositions” (priority 2005, published 2008).

Tested on: adenoviral strains
Conditions: literature study; for inhibition of adenoviral strains: Kaneko et al. J. Jpn. Opthalmol. Soc. 107:196-201 (2003)

Row | SMILES | inhibition of adenoviral strains | EC50 values against adenoviral strains (rank among NMSO3, HPMPC, dDC) (Kaneko et al. 2003, comparison in words only)
1 | Nc1ccn(C[C@@H](CO)OCP(=O)(O)O)c(=O)n1 [HPMPC] | inhibited adenoviral strains | 
2 | CCCCCCCCCCCCCCCCCCCCCCOCC(C)(COCCCCCCCCCCCCCCCCCCCCCC)CO[C@]1(C(=O)O)C[C@H](OS(=O)(=O)O)[C@@H](NC(C)=O)[C@H]([C@H](OS(=O)(=O)O)[C@@H](COS(=O)(=O)O)OS(=O)(=O)O)O1 [NMSO3] | inhibited adenoviral strains | lowest EC50 values
3 | Nc1ccn([C@H]2CC[C@@H](CO)O2)c(=O)n1 [dDC, 2′,3′-Dideoxycytidine] | inhibited adenoviral strains | 
